Results from the supplement of paper PMC10307832.

Key:
Experiment in all cases: relative viability (nuclei count vs DMSO), 5 days (fraction); higher = more cells survive
NCI-H2228 = tested on: NCI-H2228
Method in brief: (§1)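 Five library-drug doses in √10 steps were combined with a fixed anchor-drug dose, or a single drug was given alone, by pin tool to lung cancer cell lines in 1536-well plates the day after seeding. Nuclei were stained and counted after 5 days. Relative viability is the nuclei count in treated wells over that in vehicle wells, taken as the median of duplicate plates.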

NCI-H322M = tested on: NCI-H322M
Method in brief: as §1

NCI-H1651 = tested on: NCI-H1651
Method in brief: as §1

NCI-H1355 = tested on: NCI-H1355
Method in brief: as §1

SW 1573 = tested on: SW 1573
Method in brief: as §1

NCI-H1437 = tested on: NCI-H1437
Method in brief: as §1

EKVX = tested on: EKVX
Method in brief: as §1

CAL-12T = tested on: CAL-12T
Method in brief: as §1

SK-MES-1 = tested on: SK-MES-1
Method in brief: as §1

HCC-827 = tested on: HCC-827
Method in brief: as §1

LK-2 = tested on: LK-2
Method in brief: as §1

NCI-H1734 = tested on: NCI-H1734
Method in brief: as §1

NCI-H520 = tested on: NCI-H520
Method in brief: as §1

COR-L23 = tested on: COR-L23
Method in brief: as §1

NCI-H661 = tested on: NCI-H661
Method in brief: as §1

PC-3 [JPC-3] = tested on: PC-3 [JPC-3]
Method in brief: as §1

H3255 = tested on: H3255
Method in brief: as §1

HCC-15 = tested on: HCC-15
Method in brief: as §1

PC-14 = tested on: PC-14
Method in brief: as §1

RERF-LC-KJ = tested on: RERF-LC-KJ
Method in brief: as §1

NCI-H1650 = tested on: NCI-H1650
Method in brief: as §1

NCI-H2405 = tested on: NCI-H2405
Method in brief: as §1

For `C[C@@H]1CN(CC(=O)Nc2ccc3c(c2)Cc2cccc(-c4cc(=O)cc(N5CCOCC5)o4)c2S3)C[C@H](C)O1` + CC(=O)Nc1cccc(-n2c(=O)n(C3CC3)c(=O)c3c(Nc4ccc(I)cc4F)n(C)c(=O)c(C)c32)c1 [Trametinib] (partner 0.02 µM), which relative viability (NCI-H2228; first compound 0.04 µM) is on record?
The relative viability was 0.575.

And the relative viability (NCI-H2228; first compound 0.1265 µM)?
Its relative viability is 0.547.

What about the relative viability (NCI-H2228; first compound 0.4 µM) of the same compound?
The relative viability was 0.536.

What about the relative viability (NCI-H2228; first compound 4 µM) of the same compound?
The relative viability was 0.421.

And the relative viability (NCI-H322M; first compound 0.04 µM)?
The relative viability was 0.402.

And the relative viability (NCI-H322M; first compound 0.1265 µM)?
Its relative viability is 0.535.

What about the relative viability (NCI-H322M; first compound 0.4 µM) of the same compound?
Its relative viability is 0.502.

What about the relative viability (NCI-H322M; first compound 4 µM) of the same compound?
The relative viability was 0.501.

What about the relative viability (NCI-H1651; first compound 0.04 µM) of the same compound?
Its relative viability is 0.874.

What about the relative viability (NCI-H1651; first compound 0.1265 µM) of the same compound?
Its relative viability is 0.894.

What about the relative viability (NCI-H1651; first compound 0.4 µM) of the same compound?
Its relative viability is 0.83.

What about the relative viability (NCI-H1651; first compound 4 µM) of the same compound?
Its relative viability is 0.629.

And the relative viability (NCI-H1355; first compound 0.04 µM)?
The relative viability was 0.452.

What about the relative viability (NCI-H1355; first compound 0.1265 µM) of the same compound?
Its relative viability is 0.405.

What about the relative viability (NCI-H1355; first compound 0.4 µM) of the same compound?
Its relative viability is 0.383.

What about the relative viability (NCI-H1355; first compound 4 µM) of the same compound?
The relative viability was 0.401.

And the relative viability (SW 1573; first compound 0.04 µM)?
The relative viability was 0.646.

What about the relative viability (SW 1573; first compound 0.1265 µM) of the same compound?
The relative viability was 0.564.

And the relative viability (SW 1573; first compound 0.4 µM)?
The relative viability was 0.572.

And the relative viability (SW 1573; first compound 4 µM)?
Its relative viability is 0.627.

What about the relative viability (NCI-H1437; first compound 0.04 µM) of the same compound?
The relative viability was 0.47.

And the relative viability (NCI-H1437; first compound 0.1265 µM)?
Its relative viability is 0.467.

And the relative viability (NCI-H1437; first compound 0.4 µM)?
The relative viability was 0.506.

And the relative viability (NCI-H1437; first compound 4 µM)?
The relative viability was 0.369.

And the relative viability (EKVX; first compound 0.04 µM)?
Its relative viability is 0.364.

And the relative viability (EKVX; first compound 0.1265 µM)?
Its relative viability is 0.369.

And the relative viability (EKVX; first compound 0.4 µM)?
The relative viability was 0.349.

What about the relative viability (EKVX; first compound 4 µM) of the same compound?
The relative viability was 0.294.

What about the relative viability (CAL-12T; first compound 0.04 µM) of the same compound?
Its relative viability is 0.309.

And the relative viability (CAL-12T; first compound 0.1265 µM)?
Its relative viability is 0.306.

What about the relative viability (CAL-12T; first compound 0.4 µM) of the same compound?
Its relative viability is 0.304.

And the relative viability (CAL-12T; first compound 4 µM)?
The relative viability was 0.205.

What about the relative viability (SK-MES-1; first compound 0.04 µM) of the same compound?
The relative viability was 0.652.

And the relative viability (SK-MES-1; first compound 0.1265 µM)?
The relative viability was 0.53.

What about the relative viability (SK-MES-1; first compound 0.4 µM) of the same compound?
The relative viability was 0.463.

And the relative viability (SK-MES-1; first compound 4 µM)?
Its relative viability is 0.405.

And the relative viability (HCC-827; first compound 0.04 µM)?
Its relative viability is 0.541.

And the relative viability (HCC-827; first compound 0.1265 µM)?
Its relative viability is 0.51.

And the relative viability (HCC-827; first compound 0.4 µM)?
The relative viability was 0.491.

What about the relative viability (HCC-827; first compound 4 µM) of the same compound?
The relative viability was 0.513.

And the relative viability (LK-2; first compound 0.04 µM)?
The relative viability was 0.874.

What about the relative viability (LK-2; first compound 0.1265 µM) of the same compound?
The relative viability was 0.756.

And the relative viability (LK-2; first compound 0.4 µM)?
The relative viability was 0.709.

And the relative viability (LK-2; first compound 4 µM)?
The relative viability was 0.912.

What about the relative viability (NCI-H1734; first compound 0.04 µM) of the same compound?
The relative viability was 0.698.

And the relative viability (NCI-H1734; first compound 0.1265 µM)?
The relative viability was 0.756.

And the relative viability (NCI-H1734; first compound 0.4 µM)?
Its relative viability is 0.632.

And the relative viability (NCI-H1734; first compound 4 µM)?
The relative viability was 0.788.

What about the relative viability (NCI-H520; first compound 0.04 µM) of the same compound?
Its relative viability is 0.675.

And the relative viability (NCI-H520; first compound 0.1265 µM)?
Its relative viability is 0.629.

And the relative viability (NCI-H520; first compound 0.4 µM)?
Its relative viability is 0.626.

What about the relative viability (NCI-H520; first compound 4 µM) of the same compound?
The relative viability was 0.556.

And the relative viability (COR-L23; first compound 0.04 µM)?
Its relative viability is 0.596.

What about the relative viability (COR-L23; first compound 0.1265 µM) of the same compound?
The relative viability was 0.611.

What about the relative viability (COR-L23; first compound 0.4 µM) of the same compound?
The relative viability was 0.624.

What about the relative viability (COR-L23; first compound 4 µM) of the same compound?
The relative viability was 0.447.

And the relative viability (NCI-H661; first compound 0.04 µM)?
The relative viability was 0.481.

What about the relative viability (NCI-H661; first compound 0.1265 µM) of the same compound?
The relative viability was 0.552.

What about the relative viability (NCI-H661; first compound 0.4 µM) of the same compound?
The relative viability was 0.615.

And the relative viability (NCI-H661; first compound 4 µM)?
The relative viability was 0.507.

What about the relative viability (PC-3 [JPC-3]; first compound 0.04 µM) of the same compound?
Its relative viability is 0.808.

What about the relative viability (PC-3 [JPC-3]; first compound 0.1265 µM) of the same compound?
The relative viability was 0.665.

What about the relative viability (PC-3 [JPC-3]; first compound 0.4 µM) of the same compound?
The relative viability was 0.666.

What about the relative viability (PC-3 [JPC-3]; first compound 4 µM) of the same compound?
Its relative viability is 0.634.

And the relative viability (H3255; first compound 0.04 µM)?
The relative viability was 0.584.

And the relative viability (H3255; first compound 0.1265 µM)?
The relative viability was 0.601.

And the relative viability (H3255; first compound 0.4 µM)?
Its relative viability is 0.473.

And the relative viability (H3255; first compound 4 µM)?
The relative viability was 0.437.

What about the relative viability (HCC-15; first compound 0.04 µM) of the same compound?
Its relative viability is 0.374.

What about the relative viability (HCC-15; first compound 0.1265 µM) of the same compound?
Its relative viability is 0.331.

And the relative viability (HCC-15; first compound 0.4 µM)?
Its relative viability is 0.308.

What about the relative viability (HCC-15; first compound 4 µM) of the same compound?
The relative viability was 0.348.

And the relative viability (PC-14; first compound 0.04 µM)?
The relative viability was 0.872.

What about the relative viability (PC-14; first compound 0.1265 µM) of the same compound?
Its relative viability is 0.694.

And the relative viability (PC-14; first compound 0.4 µM)?
The relative viability was 0.719.

What about the relative viability (PC-14; first compound 4 µM) of the same compound?
The relative viability was 0.467.

And the relative viability (RERF-LC-KJ; first compound 0.04 µM)?
Its relative viability is 0.874.

And the relative viability (RERF-LC-KJ; first compound 0.1265 µM)?
Its relative viability is 0.796.

And the relative viability (RERF-LC-KJ; first compound 0.4 µM)?
The relative viability was 0.757.

And the relative viability (RERF-LC-KJ; first compound 4 µM)?
The relative viability was 0.695.

And the relative viability (NCI-H1650; first compound 0.04 µM)?
The relative viability was 0.535.

What about the relative viability (NCI-H1650; first compound 0.1265 µM) of the same compound?
Its relative viability is 0.548.

And the relative viability (NCI-H1650; first compound 0.4 µM)?
The relative viability was 0.596.

And the relative viability (NCI-H1650; first compound 4 µM)?
Its relative viability is 0.286.

And the relative viability (NCI-H2405; first compound 0.04 µM)?
Its relative viability is 0.7.

And the relative viability (NCI-H2405; first compound 0.1265 µM)?
The relative viability was 0.651.

And the relative viability (NCI-H2405; first compound 0.4 µM)?
The relative viability was 0.59.

What about the relative viability (NCI-H2405; first compound 4 µM) of the same compound?
The relative viability was 0.66.
